Source: patent US20230092005A1, “COMPOSITIONS AND METHODS FOR TREATING CANCER AND TUMOR” (OBLATO, INC., priority 2020, published 2023)

Test system: human A549 lung cancer xenografts
Assay: Anti-cancer efficacy in nude mice carrying human A549 lung cancer xenografts (tumor volume, tumor weight, growth inhibition rate)
Type: in vivo, BALB/c Nude mouse
Conditions: for Tumor weights (mean): tumors weighed at day 29; for Tumor growth inhibition rate (IR): IR=(1-T/C)x100 from mean tumor weights, day 29
Description: The anti-cancer efficacy of OKN-007 was assessed after oral administration in nude mice carrying human A549 lung cancer xenografts implanted subcutaneously in the flank. Human lung cancer cell line, A549 was used. […] The frozen cells were thawed in a water bath. Cells were placed in a tube containing the medium and centrifuged (1,000 rpm, 5 minutes) to discard the supernatant. After re-suspending with the culture medium, cells were placed in a cell culture flask and incubated in a 5% CO2 incubator at 37° C. Cells were sub-cultured at a ratio of 1:5 when grown with confluency of 70-80% in the culture container. Cells cultured on the day of cell line transplantation were centrifuged (1,000 rpm, 5 minutes) to discard the supernatant and to make cell suspension with D-PB S. Then, the cell suspension was mixed with Matrigel at a ratio of 1:1 (5×10^7 cells/mL). BALB/c Nude mouse, [NT]-Foxnlnu/CrlOri, SPF was used. Sex, number, age, and body weight range of animals at receipt: The mice (65 mice) were male, 5 weeks old, and had about 14.5-19.6 g weight at the receipt. Cell transplantation: After the quarantine-acclimation period, the body weight measurement and cell transplantation in healthy animals were performed. […] Prepared cell (1×10^7 cells/0.2 mL) suspension was injected subcutaneously into the right flank with disposable syringes. […] Group assignment: After transplanting cells, each tumor size was monitored for 65 animals. When tumor volume reached within 87-112 mm^3, 50 animals were assigned to the respective groups with an average tumor volume of about 99 mm^3. Based on the tumor volume, animals were selected and randomly distributed into 5 groups (10 animals/group). Dosing Route: Oral administration. The route of administration was oral because the clinical application of the test substance is oral. Method and frequency of administration: For negative control and test substance, oral administration was performed once a day for 4 weeks for a total of 28 times using a disposable syringe. For positive control, intraperitoneal administration was performed once a week for 4 weeks for a total of 4 times using a disposable syringe. Dosing Route: The dose levels of the test substance were selected at 150, 300, and 600 mg/kg. The dose level of the positive substance was selected at 2 mg/kg. The dose volume was selected at 10 mL/kg for all groups, and the individual dose was calculated based on the bodyweight of animals just prior to dosing. Measurement of tumor volume: The largest diameter (a) and the smallest diameter (b) of each tumor were measured using calipers twice a week during the observation period. The tumor volume (TV) was calculated twice a week according to the following formula: TV (mm^3)=(a (mm)×b^2 (mm^2))/2. The volume of a tumor before administration to each animal was set to the value measured at the time of group assignment. Tumor removal and measurement of body weight: After the observation period, animals were anesthetized by inhalation of isoflurane. After the tumor was extracted, the weight of the removed tumor was recorded. The tumor growth inhibition rate (IR) was calculated using the following formula: IR (%)=(1-T/C)×100, where T is a mean tumor weight in the test substance group, and positive substance group, and C is a mean tumor weight in the negative control group.

## CC(C)(C)/[N+]([O-])=C/c1ccc(S(=O)(=O)O)cc1S(=O)(=O)O [OKN-007, Disodium 4-[(Z)-[tert-butyl(oxido)azaniumylidene]methyl]benzene-1,3-disulfonate]
G2, 150 mg/kg P.O. once a day for 4 weeks
  Tumor weights (mean): 0.47 g
G2, 150 mg/kg P.O. once a day, day 1 (before administration)
  Tumor volume (mean): 99 mm^3
G2, 150 mg/kg P.O. once a day, day 5 after administration
  Tumor volume (mean): 152 mm^3
G2, 150 mg/kg P.O. once a day, day 8 after administration
  Tumor volume (mean): 200 mm^3
G2, 150 mg/kg P.O. once a day, day 12 after administration
  Tumor volume (mean): 240 mm^3
G2, 150 mg/kg P.O. once a day, day 15 after administration
  Tumor volume (mean): 243 mm^3
G2, 150 mg/kg P.O. once a day, day 19 after administration
  Tumor volume (mean): 306 mm^3
G2, 150 mg/kg P.O. once a day, day 22 after administration
  Tumor volume (mean): 376 mm^3
G2, 150 mg/kg P.O. once a day, day 26 after administration
  Tumor volume (mean): 466 mm^3
G2, 150 mg/kg P.O. once a day, day 29 after administration
  Tumor volume (mean): 603 mm^3
G2, 150 mg/kg P.O.
  Tumor growth inhibition rate (IR): 48.9%
G3, 300 mg/kg P.O. once a day for 4 weeks
  Tumor weights (mean): 0.43 g
G3, 300 mg/kg P.O. once a day, day 1 (before administration)
  Tumor volume (mean): 99 mm^3
G3, 300 mg/kg P.O. once a day, day 5 after administration
  Tumor volume (mean): 146 mm^3
G3, 300 mg/kg P.O. once a day, day 8 after administration
  Tumor volume (mean): 172 mm^3
G3, 300 mg/kg P.O. once a day, day 12 after administration
  Tumor volume (mean): 182 mm^3
G3, 300 mg/kg P.O. once a day, day 15 after administration
  Tumor volume (mean): 212 mm^3
G3, 300 mg/kg P.O. once a day, day 19 after administration
  Tumor volume (mean): 254 mm^3
G3, 300 mg/kg P.O. once a day, day 22 after administration
  Tumor volume (mean): 310 mm^3
G3, 300 mg/kg P.O. once a day, day 26 after administration
  Tumor volume (mean): 390 mm^3
G3, 300 mg/kg P.O. once a day, day 29 after administration
  Tumor volume (mean): 460 mm^3
G3, 300 mg/kg P.O.
  Tumor growth inhibition rate (IR): 53.3%
G3, 300 mg/kg P.O., listed as test substance
  Tumor growth inhibition rate (IR): 53.5%
G4, 600 mg/kg P.O. once a day for 4 weeks
  Tumor weights (mean): 0.38 g
G4, 600 mg/kg P.O. once a day, day 1 (before administration)
  Tumor volume (mean): 99 mm^3
G4, 600 mg/kg P.O. once a day, day 5 after administration
  Tumor volume (mean): 149 mm^3
G4, 600 mg/kg P.O. once a day, day 8 after administration
  Tumor volume (mean): 176 mm^3
G4, 600 mg/kg P.O. once a day, day 12 after administration
  Tumor volume (mean): 179 mm^3
G4, 600 mg/kg P.O. once a day, day 15 after administration
  Tumor volume (mean): 209 mm^3
G4, 600 mg/kg P.O. once a day, day 19 after administration
  Tumor volume (mean): 249 mm^3
G4, 600 mg/kg P.O. once a day, day 22 after administration
  Tumor volume (mean): 288 mm^3
G4, 600 mg/kg P.O. once a day, day 26 after administration
  Tumor volume (mean): 331 mm^3
G4, 600 mg/kg P.O. once a day, day 29 after administration
  Tumor volume (mean): 407 mm^3
G4, 600 mg/kg P.O.
  Tumor growth inhibition rate (IR): 58.7%
